Measured values: US8003331B2, “Method for identifying target protein of drug and method for screening therapeutic agent for diabetes using the target protein” (Astellas Pharma Inc., priority 2005, dated 2011)

Key:
[1] = target: T1, TARDBP (Homo sapiens, UniProt Q13148); experiment: pull-down with 8 GST fusion chaperone proteins from THP-1 cell extract, negative staining and mass spectrum identification; type: binding; settings: 100 μM thalidomide added or not added
T1 construct: endogenous in cells; host or cells: THP-1
T1 sequence (Q13148 whole entry, the tested form may be a part): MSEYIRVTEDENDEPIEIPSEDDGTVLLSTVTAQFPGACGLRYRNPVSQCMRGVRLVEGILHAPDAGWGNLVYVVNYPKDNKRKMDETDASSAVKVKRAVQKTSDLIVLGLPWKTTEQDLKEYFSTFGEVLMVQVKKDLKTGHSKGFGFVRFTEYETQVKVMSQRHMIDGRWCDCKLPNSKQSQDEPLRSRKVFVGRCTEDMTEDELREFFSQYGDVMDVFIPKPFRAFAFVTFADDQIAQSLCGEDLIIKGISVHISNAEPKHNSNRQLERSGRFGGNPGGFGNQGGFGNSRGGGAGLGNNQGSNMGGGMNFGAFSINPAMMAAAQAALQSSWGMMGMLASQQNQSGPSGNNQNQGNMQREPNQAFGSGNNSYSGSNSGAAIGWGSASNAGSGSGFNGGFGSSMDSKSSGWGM
Procedure: Thalidomide has significant drug effects for sleep inducing agents, multiple myeloma, HIV, Hansen's disease and the like, but direct target protein of thalidomide has so far been unclear. Accordingly, an attempt was made to screen a target protein of thalidomide using the method shown in the aforementioned “Example 2(2). A human monocytic cell line THP-1 (ATCC) was cultured and suspended in 60 ml of a minimum essential medium (RPMI 1640, Invitrogen) containing 10% fetal calf serum (FCS) and cultured on a plate of 10 cm in diameter (Asahi Techno Glass) until reached 10^6 cells/ml. The cells were collected by 3 minutes of centrifugation at 1200 rpm, washed once with 10 ml of ice-cooled PBS and then lysed by adding 2.0 ml of the aforementioned buffer A, and the cell extract was collected. […] Under a condition of adding or not adding 100 μM in final concentration of thalidomide ((−)-thalidomide, Sigma), a pull-down test was carried out by mixing this soluble fraction of cell extract with 8 species of GST fusion chaperone proteins purified on the glutathione Sepharose beads (a mixture of GST-HSPA1A, GST-HSPH1, GST-HSPCA, GST-HSPD1, GST-DNAJA1, GST-HSPB1, GST-HSPE1 and GST-HSPA4; respective proteins were mixed in 0.5 μg portions). In this connection, steps and conditions of the pull-down test were the same as the aforementioned Example 2(2). […]

[2] = system: TNF-α; experiment: TNF-α gene expression in HeLa S3 cell (real time PCR, corrected by β-actin); type: cell-based, human
Procedure: The pcDNA-TARDBP or an empty vector (pcDNA3.1) (Invitrogen) was transferred into HeLa S3 cell. Illustratively, the HeLa S3 cell (ATCC) was firstly cultured in a 12 well culture plate until it reached a state of 70% confluent, by adding 1 ml of a minimum essential medium DMEM (Gibco) containing 10% fetal bovine serum (Sigma) to each well of the culture plate. The medium was substituted by 0.5 ml per well of a serum-free medium OPTI MEM I (Invitrogen), and 0.8 μg/well of the pcDNA-TARDBP or pcDNA3.1 was transiently transferred using Lipofect amine 2000 (Invitrogen). After 12 hours of the culturing, this was substituted by 1 ml/well of DMEM containing 10% of fetal bovine serum and further cultured for 12 hours. This was further cultured for 16 hours under a condition of adding or not adding okadaic acid (Wako Pure Chemical Industries) to a final concentration of 50 nM. In this case, […] was added a part of the cells simultaneously with the okadaic acid treatment. The medium was discarded, the cells were washed twice with ice-cooled PBS, and then these cells were frozen and stored at −80° C.
Total RNA was prepared from each cell frozen in the aforementioned Example 9(2), using a reagent for RNA extraction use (Isogen; Nippon Gene) and in accordance with the instructions attached thereto. The thus prepared each total RNA was then treated with a deoxyribonuclease (Nippon Gene), subjected to phenol/chloroform treatment and ethanol precipitation and dissolved in sterile water. Using 1 μg of this total RNA, its reverse transcription into a single-stranded cDNA was carried out in a system of 20 μl using a kit for reverse transcription reaction use (Advantage™ RT-for-PCR Kit; Clontech).
Six oligonucleotides (SEQ ID NO:97 to SEQ ID NO:102) were designed and synthesized as primers of PCR for the measurement of gene expression quantity. A combination of SEQ ID NO:97 and SEQ ID NO:98 was used for human β-actin gene, and a combination of SEQ ID NO:99 and SEQ ID NO:100 for human TNF-α gene, and a combination of SEQ ID NO:101 and SEQ ID NO:102 for human TARDBP gene, respectively. […]
The expression quantities of human TNF-α gene and human TARDBP gene in each sample were corrected by the expression quantity of β-actin gene based on the following equation. [Corrected expression quantity of TNF-α or TARDBP]=[expression quantity of TNF-α or TARDBP gene (raw data)/[expression quantity of β-actin gene (raw data)]
In comparing the expression quantities of TNF-α and TARDBP genes, relative amounts were calculated by regarding the expression quantity in a cell, into which an empty vector (pcDNA3.1) was transferred and which was treated only with the solvent (DMSO), as 100, with the results sown in FIG. 9 and FIG. 10. […]

With O=C1CCC(N2C(=O)c3ccccc3C2=O)C(=O)N1 (single isomer, unassigned; (-)) [thalidomide, (−)-thalidomide] the “band of about 45 kDa (TARDBP) binding to GST fusion chaperone protein mixture” value [1] was “present only when thalidomide was added”, the “action to suppress expression of TNF-α” value ([2]; TARDBP high expression cell (pcDNA-TARDBP HeLa S3), with 50 nM okadaic acid) was “not observed” and the “suppression of expression acceleration of TNF-α by okadaic acid” value ([2]; control cell (empty vector HeLa S3), thalidomide '100' added with 50 nM okadaic acid, 16 hours) was about 50%.
